Test results from patent US20100004325A1, “Use of Baicalein As Prolyl Hydroxylase 2 Inhibitor” (Korea Institute of Science and Technology, priority 2007, published 2010).
“And” between values parts separate entries of the source, which are not always exact repeats. Identical values can stand only once.

What was measured:
12-lipoxygenase = details: Daotai et al., JBC 281; cited from earlier work
[1] = test system: HIF-1α binding to hypoxia-response element (HRE); experiment: p(HRE)4-luciferase reporter assay in HeLa cells; format: cell-based; details: 20 μM baicalein, 16 hours
Method: In order to examine the binding of the HIF-1α stabilized by baicalein in normoxia with HRE existed on a target gene, luciferase assay was conducted as follows. Specifically, HeLa cells (5×10^4 cells/well) were cultured on a 24-well plate, and 100 ng of p(HRE)4-luciferase plasmid and 50 ng of β-galactosidase expression vector, pCHO110, were co-transfected thereinto. As a control to 20 μM of baicalein, DFO (deferoxamine) and CoCl2 were added to the cells, respectively, and cultured for 16 hours. The cell extract was obtained, and the luciferase activity thereof was measured by luminometer (Tuner Designs).
The value was normalized for the β-galactosidase activity value and the total amount of protein measured by BCA protein analysis (Sigma).

[2] = molecular target: T1, F-HyP564 peptide / VBC protein (Homo sapiens, UniProt P40337); experiment: Fluorescence polarization of F-HyP564 peptide bound to VBC protein (counter-test); format: binding
T1 construct: made in house; host or cells: E. coli BL21 (DE3), co-expression of pGEX4T-VHL-EB and pDEV-EC (pET29b)

HIF-1α = HIF-1α protein expression in HepG2 cells, western blotting; format: cell-based; details: HepG2, normoxia, 6 hours; increase similar to HIF-1α in hypoxia
Method: In order to examine the change of the HIF-1α protein expression by baicalein in a cell, HepG2 strain was grown to 80% confluence on a 60 mm tissue culture plate. Baicalein with increasing concentrations was added to the cultured cell and further cultured in normoxia for 6 hours, and as controls, same cell mixtures were cultured in hypoxia. The cells were washed with 4° C. phosphate based saline buffer, and eluted with radioimmunoprecipitation analysis solution containing 150 mM NaCl, 1% Nonidet P-40, 0.5% deoxycholate, 0.1% SDS, 50 mM Tris (pH 7.4). 100 μg/ml PMSF, 10 μg/ml leupeptin, 1 μg/ml antipain, 10 μg/ml aprotinin, 50 mM β-glycerophosphate, 25 mM NaF, 20 mM EGTA, 1 mM DTT and 1 mM Na3VO4. Then, the cells were centrifuged, and the cell extracts thus obtained were quantified by Bradford protein assay. In order to perform the immunoblot against HIF-1α, 20 μg of the cell extract was suspended in SDS sample buffer, and heated in a water bath for 5 min to completely solublize the protein structure. […] The membrane was treated with ECL solution and exposed to X-ray film for 5 min, and finally the HIF-1α protein was detected, and subjected to luminescence image analyzer (Model LAS-3000, Fuji) for detailed analysis.

VEGF [3] = experiment: VEGF secretion by HeLa cells, ELISA; format: cell-based, human; details: 20 μM baicalein, 16 hours, compared with DMSO control
Method: In order to examine the secretion change of the VEGF protein known as a secretion protein synthesized in a cell, its cell culture solution was subjected to ELISA as follows. Specifically, HeLa cells aliquoted on a 24-well plate were cultured for 24-48 hour, and DMSO, CoCl2 (200 μM), DFO (125 μM) and baicalein (20 μM) were treated thereto, respectively. After culturing for 16 hours, the cell solution was recovered and centrifuged to separate supernatant. The supernatant was aliquoted on an antibody-coated well plate using human VEGF Quantikine ELISA kit (R&D Systems) to monitor the amount of VEGF in the supernatant. Then, an antibody for VEGF was treated to each well, followed by measuring the amount of the VEGF using luminometer.

PHD2 [4] = molecular target: T2, PHD2 (Homo sapiens, UniProt Q9GZT9); experiment: Proline hydroxylation of B-P564 peptide by PHD2, MALDI mass spectrometry; format: biochemical; details: 800 μM baicalein, 1.4 μg/μl PHD2, 2 hours, room temperature
T2 construct: made in house; host or cells: E. coli BL21 (DE3), pGEX-4T-1
Method: For the analysis of proline hydroxylation, 800 μM of baicalein and 1.4 μg/μl of PHD2 were mixed in a buffer (20 mM Tris-HCl, pH 8.0, 100 mM NaCl, 1 mM EDTA, 1 mM PMSF, 0.5% NP-40) supplemented with ascorbic acid (final concentration: 400 μM) and α-ketoglutarate (final concentration: 100 μM). Then, 3 μM of the B-P564 peptide was added to the resulting mixture, and reacted at room temperature for 2 hours. Excess salts in the enzyme reactant were removed by ZipTipC18 (Millipore), and the eluted reactant was analyzed by MALDI mass spectrometry.

PHD2 [5] = molecular target: T2, PHD2; experiment: Fluorescence polarization assay of PHD2-mediated hydroxylation of F-P564 peptide (binding to VBC protein); format: biochemical; details: proline hydroxylation 20 min, baicalein 0 to 200 μM, 500 nM VBC protein; read-out: concentration of baicalein that results in 50% inhibition of the PHD2 activity (IC50)
Method: In order to screen a PHD2 inhibitor, 1040 compounds having biological activities (NINDS Custom Collection II, MicroSource Discovery Systems) were used. First, 1 μl of each compound was aliquoted into a 1.5 ml tube at the final concentration of 20 μM. Then, GST-PHD2 (final concentration: 0.2-0.3 μg/μl) was mixed with the each compound, followed by adding a buffer (20 mM Tris-HCl, pH 8.0, 100 mM NaCl, 1 mM EDTA, 1 mM PMSF, 0.5% NP-40) thereto. […]
[…] After mixing at room temperature, the resulting mixture was transferred to a 96-well plate, and fluorescence polarization was measured by using VICTOR (Perkin-Elmer).
After obtaining the fluorescence polarization value of the mixture of the F-Hy564 peptide ([…]) in the buffer by VICTOR, the PHD2 inhibitory activity of each compound was represented in percentage based on that the fluorescence polarization value. 26 compounds with at least 60% of PHD2 inhibitory activity were randomly selected. […]
In order to examine the PHD2 inhibitory activity of baicalein, proline hydroxylation was performed for 20 min with increasing final concentrations of baicalein from 0 to 200 μM. […] Fluorescence polarization of the resulting mixture was measured by using a fluorometer (Perkin-Elmer), and the size of slit was 6 nm and the integration time was 5 sec.

VEGF [6] = experiment: VEGF mRNA expression in HepG2 cells, RT-PCR; format: cell-based; details: HepG2, normoxia
Method: In order to examine the expression of VEGF known as a representative target gene of the HIF-1α, RT-PCR was conducted as follows. In normoxia, DMSO was treated to HepG2 cells as a negative control, and its influence was observed. As a positive control, HepG2 cells were cultured in hypoxia for 16 hours. In order to amplify cDNA of VEGF mRNA expressed in the cell, the RNA of the cultured cell was subjected to RT-PCR by using forward primer (5′-ccatgaactttctgctdtctt-3′, SEQ ID NO: 5) and reverse primer (5′-[…]-3′, SEQ ID NO: 6). Further, in order to amplify cDNA of 18s rRNA, the RNA of the cultured cell was subjected to RT-PCR by using forward primer (5′-[…]-3′, SEQ ID NO: 7) and reverse primer (5′-[…]-3′, SEQ ID NO: 8) (Table 2).
The amplified product was subjected to electrophoresis on 1.5% agarose-gel, and the mRNA expression was quantitated by phosphoimager (Model Las3000, Fuji) (see FIG. 6a).

FIH1 = molecular target: T3, FIH1 (Homo sapiens, UniProt Q9NWT6); experiment: Asparagine hydroxylation of F-N803 peptide by FIH1, MALDI mass spectrometry; format: biochemical; details: 20 μM baicalein, 0.55 μg/μl His-FIH1, 2 hours, room temperature
T3 construct: made in house; host or cells: E. coli BL21 (DE3), pET-28a
Method: Further, in order to examine the inhibitory activity of baicalein against FIH1, 20 μM of baicalein and 0.55 μg/μl of His-FIH1 were mixed in a buffer (50 mM Tris-HCl, pH 7.5, 5 mM KCl, 1.5 mM MgCl2) supplemented with ascorbic acid (final concentration: 400 μM) and α-ketoglutarate (final concentration: 100 μM). Then, 4 μM of the F-HIF-1α peptide containing the 788th-822nd amino acid was added to the resulting mixture, and reacted at room temperature for 2 hours. Excess salts in the reactant were removed by ZipTipC18, and the eluted reactant was analyzed by MALDI mass spectrometry.

O=c1cc(-c2ccccc2)oc2cc(O)c(O)c(O)c12 [baicalein]
activity of 12-lipoxygenase (12-lipoxygenase): inhibits
luciferase activity normalized for total protein amount [1]: a similar result was obtained
fluorescence polarization value of F-HyP564 peptide with VBC protein ([2]; baicalein at the highest concentration, 500 nM VBC protein): did not decrease
effect on interaction of F-HyP564 with the VBC protein (fluorescence polarization) ([2]; up to 20 μM of baicalein): did not affect
concentration of baicalein at which HIF-1α protein expression increased (HIF-1α): more than 50 μM
amount of VEGF in the supernatant (VEGF [3]): significantly increase
hydroxylation of the proline residue of B-P564 peptide (PHD2 [4]): not hydroxylated
IC50 (PHD2 [5]): ~15 µM and 15 µM
amount of the expressed VEGF (FIGS. 6a and 6b) (VEGF [6]): increases
hydroxylation of the asparagine residue of F-HIF-1α peptide (788th-822nd amino acid) (FIH1): not hydroxylated
